Experimental data from patent publication US11253524B2 (Gilead Sciences, Inc., priority 2018, dated 2022).

Key:
OATP2B1 = molecular target: T1, OATP2B1 (Homo sapiens, UniProt O94956); assay: OATP2B1 inhibition assay, 3H-E3S uptake, MDCKII cells; format: cell-based
T1 construct: expressed in transfected cells; host or cells: MDCKII cells
T1 sequence (O94956 1-709): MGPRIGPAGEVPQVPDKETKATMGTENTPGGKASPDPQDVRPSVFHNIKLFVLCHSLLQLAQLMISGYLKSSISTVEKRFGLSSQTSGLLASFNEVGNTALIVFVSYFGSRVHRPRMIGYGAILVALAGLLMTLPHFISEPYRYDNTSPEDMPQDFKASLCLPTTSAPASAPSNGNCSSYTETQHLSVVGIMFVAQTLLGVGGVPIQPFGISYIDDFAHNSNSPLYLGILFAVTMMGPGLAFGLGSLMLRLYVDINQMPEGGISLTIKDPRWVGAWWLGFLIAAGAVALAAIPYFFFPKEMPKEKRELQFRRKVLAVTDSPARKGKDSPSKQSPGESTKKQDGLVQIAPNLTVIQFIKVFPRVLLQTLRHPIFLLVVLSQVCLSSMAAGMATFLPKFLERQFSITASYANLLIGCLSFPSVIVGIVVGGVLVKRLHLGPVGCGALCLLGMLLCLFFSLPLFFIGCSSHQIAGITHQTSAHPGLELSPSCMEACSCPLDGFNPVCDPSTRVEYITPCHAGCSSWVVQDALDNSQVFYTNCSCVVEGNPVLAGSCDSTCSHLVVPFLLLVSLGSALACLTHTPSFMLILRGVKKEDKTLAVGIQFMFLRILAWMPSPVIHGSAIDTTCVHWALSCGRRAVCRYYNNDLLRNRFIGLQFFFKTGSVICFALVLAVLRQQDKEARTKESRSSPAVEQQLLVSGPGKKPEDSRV
Description: MDCKII-Mock and OATP2B1-transfected cells (1×10^5 cells each) were seeded 24 hr prior to assay. Pre-rinsed cells were incubated for 2 minutes with 0.2 μM ^3H-E3S in HK buffer in the presence of various concentrations of test compound or positive control fluvastatin. After the experiment cells were rinsed with Krebs-Henseleit buffer and lysed with 0.1 M NaOH. The amount of substrate inside the cells was determined by liquid scintillation reader.
(§1) Percent inhibition was calculated according to the following equation: % inhibition=[1−{[OATP]i−[WT]ni}/{[OATP]ni−[WT]ni}]*100 where: [OATP]i represent the substrate accumulation in the presence of test compound for either OATP1B1, OATP1B3, or OATP2B1 cells; [OATP]ni represents the substrate accumulation in the absence of test compound for either OATP1B1, OATP1B3, or OATP2B1 cells, respectively; and [WT]ni represents the substrate accumulation in the absence of test compound for wild type cells or Mock cells, respectively. IC50 Determination in Transporter Assays
(§2) IC50 was determined according to the procedures described in Example 5. […] Results are reported as NIO (no interaction observed).

OATP1B1 = molecular target: T2, OATP1B1 (Homo sapiens, UniProt Q9Y6L6); assay: OATP1B1 inhibition assay using 3H-E217βG as probe substrate, HEK293FT cells; format: cell-based; design: expressed in transfected cells; conditions: for IC50 (μM): NIO = no interaction observed
T2 sequence (Q9Y6L6 1-691): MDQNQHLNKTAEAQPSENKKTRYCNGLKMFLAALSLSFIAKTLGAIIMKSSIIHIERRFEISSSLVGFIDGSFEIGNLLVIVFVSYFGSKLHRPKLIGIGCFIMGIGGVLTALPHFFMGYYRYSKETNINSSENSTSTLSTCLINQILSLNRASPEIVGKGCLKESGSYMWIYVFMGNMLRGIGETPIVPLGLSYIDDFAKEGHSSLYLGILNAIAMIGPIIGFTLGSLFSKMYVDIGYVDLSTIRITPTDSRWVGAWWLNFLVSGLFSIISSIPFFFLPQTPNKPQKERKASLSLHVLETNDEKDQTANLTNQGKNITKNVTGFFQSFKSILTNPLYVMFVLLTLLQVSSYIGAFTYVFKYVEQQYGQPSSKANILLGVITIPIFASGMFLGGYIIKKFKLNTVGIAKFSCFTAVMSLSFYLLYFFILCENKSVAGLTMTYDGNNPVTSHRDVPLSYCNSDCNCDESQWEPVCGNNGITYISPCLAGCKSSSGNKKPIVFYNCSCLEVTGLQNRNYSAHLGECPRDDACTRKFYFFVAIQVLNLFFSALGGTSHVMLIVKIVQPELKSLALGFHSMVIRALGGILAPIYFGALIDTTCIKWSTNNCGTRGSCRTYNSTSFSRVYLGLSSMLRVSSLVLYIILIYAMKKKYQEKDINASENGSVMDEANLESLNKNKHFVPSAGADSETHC
Description: (§3) HEK293FT-Mock and OATP-transfected cells (1×10^5 cells each) were seeded 24 hr prior to assay. Pre-rinsed ells were incubated for 3 minutes with 1 μM ^3H-E217βG in HK buffer in the presence of various concentrations of test compound or positive control rifampicin. After the experiment cells were rinsed with Krebs-Henseleit buffer and lysed with 0.1 M NaOH. The amount of substrate inside the cells was determined by liquid scintillation reader.
as §1, §2

OATP1B3 = molecular target: T3, OATP1B3 (Homo sapiens, UniProt Q9NPD5); assay: OATP1B3 inhibition assay using 3H-E217βG as probe substrate, HEK293FT cells; format: cell-based; design: expressed in transfected cells
T3 sequence (Q9NPD5 1-702): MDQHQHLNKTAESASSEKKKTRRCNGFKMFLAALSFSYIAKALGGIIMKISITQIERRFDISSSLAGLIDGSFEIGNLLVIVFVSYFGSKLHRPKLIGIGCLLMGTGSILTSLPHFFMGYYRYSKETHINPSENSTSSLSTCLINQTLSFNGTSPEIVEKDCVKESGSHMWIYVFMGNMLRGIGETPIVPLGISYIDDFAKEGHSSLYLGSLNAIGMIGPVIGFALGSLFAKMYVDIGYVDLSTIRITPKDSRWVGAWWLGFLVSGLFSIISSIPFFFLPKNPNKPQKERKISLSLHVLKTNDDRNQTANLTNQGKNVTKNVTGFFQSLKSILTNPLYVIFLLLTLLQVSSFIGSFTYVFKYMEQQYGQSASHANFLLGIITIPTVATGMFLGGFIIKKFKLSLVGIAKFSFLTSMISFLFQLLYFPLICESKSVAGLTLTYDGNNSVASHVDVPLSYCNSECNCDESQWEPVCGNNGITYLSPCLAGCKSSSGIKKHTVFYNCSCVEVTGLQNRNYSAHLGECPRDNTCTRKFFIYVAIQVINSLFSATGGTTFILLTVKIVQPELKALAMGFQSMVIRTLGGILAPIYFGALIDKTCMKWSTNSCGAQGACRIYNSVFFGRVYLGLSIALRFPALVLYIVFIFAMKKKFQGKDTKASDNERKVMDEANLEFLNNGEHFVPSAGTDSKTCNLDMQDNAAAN
Description: as §3, §1, §2

[1] = test system: cryopreserved hepatocytes; assay: Metabolites of [14C]BIC in cryopreserved hepatocytes, dog; format: in vitro ADME; conditions: Beagle Dog hepatocytes, 4 hours, [14C]BIC 20 μM
Source text: Metabolic pathways included hydroxylation (3 variants), N-dealkylation, and direct glucuronidation. All human metabolites were also observed in nonclinical species. Using the hepatocyte system where the full range of hepatic metabolic enzymes are represented, it appeared that the metabolism of BIC was extensive in monkey and dog but lower in rat and human.

Row | Structure (SMILES) | IC50 (OATP2B1; NIO = no interaction observed) | inhibition at 2 min, 100 µM (OATP2B1; human, MDCKII cells transfected with OATP2B1, probe 3H-E3S (0.2 μM), at 100 μM, read-out: Maximum inhibition at highest test conc. (% of control)) | IC50 (μM) (OATP1B1) | Maximum inhibition at highest test conc. (% of control) (OATP1B1; at 100 μM) | inhibition at 3 min, 100 µM (OATP1B1; human, HEK293FT cells transfected with OATP1B1, probe 3H-E217βG (1 μM), at 100 μM, read-out: Maximum inhibition at highest test conc. (% of control)) | IC50 (OATP1B3; NIO = no interaction observed) | inhibition at 3 min, 100 µM (OATP1B3; human, HEK293FT cells transfected with OATP1B3, probe 3H-E217βG (1 μM), at 100 μM, read-out: Maximum inhibition at highest test conc. (% of control)) | IC50 (μM) (OATP2B1; NIO = no interaction observed) | Fraction of Radiochromatogram (%) [1] | IC50 (μM) (OATP1B3; NIO = no interaction observed)
1 | O=C(NCc1c(F)cc(F)c(OS(=O)(=O)O)c1F)c1cn2c(c(O)c1=O)C(=O)N1C(C2)O[C@@H]2CC[C@H]1C2 (some centres unmarked) [Metabolite M20] | > 100 µM | 26% | NIO* | no dose dependent inhibition | 12% | > 100 µM | 49% |  |  | 
2 | O=C(NCc1c(F)cc(F)cc1F)c1cn2c(c(O)c1=O)C(=O)N1[C@H]3CC[C@H](C3)O[C@@H]1C2 [BIC, bictegravir, reference compound] |  |  | NIO |  |  |  |  | NIO | 78.7% | NIO
